Data: patent publication US20250049036A1 (priority 2021, published 2025)

Assays:
Phakopsora pachyrhizi = Phakopsora pachyrhizi test on soybean, preventive, greenhouse; format: in vivo; conditions: preventive spray on soybean, inoculated one day after treatment, read-out: control (efficacy, disease severity) compared to the untreated check
Outline: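 Greenhouse-grown young soybean plants were sprayed with compound (2% DMSO/acetone, emulsifier in water) at the stated rate. One day later they were inoculated with 2×10^5 P. pachyrhizi inoculum and held at 22-24 °C, 80-90% relative humidity for disease development.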

Alternaria solani [1] = assay: Alternaria solani test in tomato, preventive, greenhouse; format: in vivo; conditions: preventive spray on tomato, inoculated one day after treatment, read-out: control (efficacy, disease severity) compared to the untreated check
Description: The respective compound was dissolved in 2% dimethyl sulfoxide/acetone and then mixed with water containing an emulsifier to the calibrated spray volume of 30 mL. Each spray solution was poured into a spray bottle for further application.
To test the preventive activity of a compound, healthy young tomato plants, raised in the greenhouse, were sprayed with the active compound preparation at the stated application rate inside the spray cabinets using hollow cone nozzles. One day after treatment, the plants were inoculated with a spore suspension containing 0.24×10^6 Alternaria solani inoculum. The inoculated plants were then kept in a greenhouse chamber at 22-24° C. temperature and 90-95% relative humidity for disease expression.
A visual assessment of the compound's performance was carried out by rating the disease severity (0 100% scale) on treated plants 3, 7, 10 and 15 days after application. Efficacy (% control) of the compound was calculated by comparing the disease rating in the treatment with the one of the untreated control. The treated plants were also assessed for plant damage by recording symptoms like necrosis, chlorosis and stunting.

Parastagonospora nodorum = Parastagonospora nodorum (PARANO) spore growth inhibition in liquid medium, 96-well microtiter plate, OD 600; format: cell-based; conditions: spore suspension in PDB liquid medium, 18° C., 5-6 days, OD at 600, read-out: control compared to the untreated check
Outline: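 Read-out is percent growth inhibition from OD at 600 after 5-6 days at 18° C. Compounds, dissolved in DMSO, were diluted in potato dextrose broth and combined in equal volume with a 10^5 spores/ml suspension of PARANO.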

Botrytis cinerea [2] = assay: Botrytis cinerea (gray mold) mycelial radial growth on potato dextrose agar; format: cell-based; conditions: 168 h, 22° C., seven days, read-out: control compared to the untreated check
Outline: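 Compounds in 0.3% DMSO were mixed into potato dextrose agar, and plates were seeded with 5 mm mycelial discs from actively growing virulent culture. After seven days at 22 °C and 90% relative humidity, radial growth was measured relative to untreated control.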

Venturia Inequalis = assay: Venturia inequalis (VENTIN) spore growth inhibition in liquid medium, 96-well microtiter plate, OD 600; format: cell-based; conditions: spore suspension in PDB liquid medium, 18° C., 15-18 days, OD at 600, read-out: control compared to the untreated check
Description: Potato dextrose (PDB) liquid medium containing a VENTIN (10^5 spores/ml) spore suspension was prepared. For the inhibition assay, each test compound was solved in dimethyl sulfoxide. 100 μl of the test compound in media-solution was added to a 96-well microtiter plate, consequently, the same volume (100 μl) of spore suspension was added to the well making the final test concentrations and the treated plate was incubated at 18° C. for 15-18 days. The growth inhibition was evaluated by measuring the OD at 600. Percent inhibition was calculated with the below formula: […]

Alternaria solani [3] = assay: Alternaria solani (early blight of tomato/potato) mycelial radial growth on potato dextrose agar; format: cell-based; conditions: 168 h, 25° C., seven days, read-out: control compared to the untreated check
Description: The compounds were dissolved in 0.3% dimethyl sulfoxide and then added to potato dextrose agar medium just prior to dispensing it into petri dishes. 5 mL medium, with the compound in the desired concentration, was dispensed into 60 mm sterile petri-plates. After solidification, each plate was seeded with a 5 mm size mycelial disc taken from the periphery of an actively growing virulent culture plate. The plates were incubated in growth chambers at 25° C. temperature and 60% relative humidity for seven days and the radial growth was measured and compared to the one of the untreated control.

Phytophthora infestans [4] = assay: whole plant or invertebrate; format: in vivo, Phytophthora infestans on tomato; conditions: in Solanum lycopersicum, read-out: control (efficacy, disease severity) compared to the untreated check
Botrytis cinerea [5] = assay: Botrytis cinerea test on tomato, preventive, greenhouse; format: in vivo; conditions: preventive spray on bean/chili plants (heading: tomato), inoculated one day after treatment, read-out: control (efficacy, disease severity) compared to the untreated check
Phytophthora infestans [6] = assay: microbe, parasite or virus in culture; format: cell-based; conditions: 168 h, read-out: control compared to the untreated check
Botrytis cinerea [7] = assay: Botrytis cinerea liq. (BOTRCI) spore growth inhibition in liquid medium, 96-well microtiter plate, OD 405 nm; format: cell-based; conditions: spore suspension in YBA liquid medium, 22° C., 5-6 days, OD at 405 nm, read-out: control compared to the untreated check
Outline: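 Spore suspension of B. cinerea (10^4 spores/ml) in YBA liquid medium mixed 1:1 with compound diluted from DMSO. Incubated at 22° C. for 5-6 days. Growth read as OD 405 nm; percent inhibition derived from treatment, untreated-control and blank readings.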

Colletotrichum capsici = Colletotrichum capsici (anthracnose) mycelial radial growth on potato dextrose agar; format: cell-based; conditions: Colletotrichum truncatum, 168 h, 25° C., seven days, read-out: control compared to the untreated check
Outline: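 Compounds in 0.3% DMSO were mixed into potato dextrose agar, and each plate was seeded with a 5 mm mycelial disc from an actively growing culture. Plates were incubated at 25° C and 60% relative humidity for seven days. Radial growth was compared with untreated control.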

Pyricularia oryzae = assay: microbe, parasite or virus in culture; format: cell-based; conditions: 168 h, read-out: control compared to the untreated check

Cn1ccc2cc(C(=O)NC(C)(C)Cc3ccccc3Br)cnc21 [Compound 26]
≥ 70%: pest or weed control at 500 ppm (Phakopsora pachyrhizi) | pest or weed control at 500 ppm (Alternaria solani [1]) | inhibition of growth at 300 ppm (Parastagonospora nodorum)

C=C(C)CC(C)(Cc1ccccc1F)NC(=O)c1cnc2cc[nH]c2c1 (stereo not drawn) [Compound 144, N-(1-(2-fluorophenyl)-2,4-dimethylpent-4-en-2-yl)-1H-pyrrolo[3,2-b] pyridine-6-carboxamide]
≥ 70%: inhibition of growth at 300 ppm (Botrytis cinerea [2]) | inhibition of growth at 300 ppm (Venturia Inequalis) | inhibition of growth at 300 ppm (Alternaria solani [3]) | pest or weed control at 500 ppm (Phakopsora pachyrhizi) | pest or weed control at 500 ppm (Phytophthora infestans [4]) | pest or weed control at 500 ppm (Botrytis cinerea [5]) | inhibition of growth at 300 ppm (Phytophthora infestans [6]) | inhibition of growth at 300 ppm (Parastagonospora nodorum) | inhibition of growth at 300 ppm (Botrytis cinerea [7]) | inhibition of growth at 300 ppm (Colletotrichum capsici)

C=C(C)CC(C)(COc1ccc(F)cc1)NC(=O)c1cc2cc[nH]c2nc1C (stereo not drawn) [Compound 128, N-(1-(4-fluorophenoxy)-2,4-dimethylpent-4-en-2-yl)-6-methyl-1H-pyrrolo[2,3-b]pyridine-5-carboxamide]
≥ 70%: pest or weed control at 500 ppm (Alternaria solani [1]) | pest or weed control at 500 ppm (Botrytis cinerea [5])

Cc1ccccc1C(=O)OCC(C)(C)NC(=O)c1cnc2c(c1)CCCC2 [Compound 151, 2-methyl-2-(5,6,7,8-tetrahydroquinoline-3-carboxamido)propyl 2-methylbenzoate]
≥ 70%: pest or weed control at 500 ppm (Phakopsora pachyrhizi) | pest or weed control at 500 ppm (Alternaria solani [1]) | pest or weed control at 500 ppm (Botrytis cinerea [5]) | inhibition of growth at 300 ppm (Parastagonospora nodorum)

Cn1ccc2cc(C(=O)NC(C)(C)Cc3cc(F)cc(F)c3)cnc21 [Compound 15, N-(1-(3,5-difluorophenyl)-2-methylpropan-2-yl)-1-methyl-1H-pyrrolo[2,3-b]pyridine-5-carboxamide]
≥ 70%: pest or weed control at 500 ppm (Alternaria solani [1])

Cn1ccc2cc(C(=O)NC(C)(C)Cc3cccc(F)c3)cnc21 [Compound 21, N-(1-(3-fluorophenyl)-2-methylpropan-2-yl)-1-methyl-1H-pyrrolo[2,3-b]pyridine-5-carboxamide]
≥ 70%: inhibition of growth at 300 ppm (Pyricularia oryzae) | pest or weed control at 500 ppm (Phakopsora pachyrhizi) | pest or weed control at 500 ppm (Alternaria solani [1]) | inhibition of growth at 300 ppm (Colletotrichum capsici)

Cn1ccc2cc(C(=O)NC(C)(C)Cc3ccc(Cl)cc3F)cnc21 [Compound 47, N-(1-(4-chloro-2-fluorophenyl)-2-methylpropan-2-yl)-1-methyl-1H-pyrrolo[2,3-b]pyridine-5-carboxamide]
≥ 70%: inhibition of growth at 300 ppm (Venturia Inequalis) | inhibition of growth at 300 ppm (Pyricularia oryzae) | inhibition of growth at 300 ppm (Alternaria solani [3]) | pest or weed control at 500 ppm (Phakopsora pachyrhizi) | pest or weed control at 500 ppm (Phytophthora infestans [4]) | inhibition of growth at 300 ppm (Parastagonospora nodorum)

Cn1cc(Cl)c2cc(C(=O)NC(C)(C)COC(=O)c3cccc(F)c3)cnc21 [Compound 153, 2-(3-chloro-1-methyl-1H-pyrrolo[2,3-b]pyridine-5-carboxamido)-2-methylpropyl 3-fluorobenzoate]
≥ 70%: pest or weed control at 500 ppm (Alternaria solani [1]) | pest or weed control at 500 ppm (Botrytis cinerea [5]) | inhibition of growth at 300 ppm (Parastagonospora nodorum)

CC(C)(Cc1ccccc1)NC(=O)c1cnc2ccsc2c1 [Compound 30, N-(2-methyl-1-phenylpropan-2-yl)thieno[3,2-b] pyridine-6-carboxamide]
≥ 70%: inhibition of growth at 300 ppm (Pyricularia oryzae) | pest or weed control at 500 ppm (Alternaria solani [1]) | pest or weed control at 500 ppm (Botrytis cinerea [5]) | inhibition of growth at 300 ppm (Phytophthora infestans [6])

CC(C)CC(C)(Cc1ccccc1)NC(=O)c1cnc2c(c1)c(Br)cn2C (stereo not drawn) [Compound 51, 3-bromo-N-(2,4-dimethyl-1-phenylpentan-2-yl)-1-methyl-1H-pyrrolo[2,3-b]pyridine-5-carboxamide]
≥ 70%: inhibition of growth at 300 ppm (Pyricularia oryzae) | pest or weed control at 500 ppm (Phakopsora pachyrhizi) | pest or weed control at 500 ppm (Alternaria solani [1])

CCC(O)(CC)C(NC(=O)c1cnc2c(ccn2C)c1)c1ccc(F)cc1 (stereo not drawn) [Compound 131, N-(2-ethyl-1-(4-fluorophenyl)-2-hydroxybutyl)-1-methyl-1H-pyrrolo[2,3-b]pyridine-5-carboxamide]
≥ 70%: inhibition of growth at 300 ppm (Pyricularia oryzae) | pest or weed control at 500 ppm (Phakopsora pachyrhizi) | pest or weed control at 500 ppm (Alternaria solani [1])

Cn1cc(Cl)c2cc(C(=O)NC(C)(C)Cc3ccccc3F)cnc21 [Compound 59, 3-chloro-N-(1-(2-fluorophenyl)-2-methylpropan-2-yl)-1-methyl-1H-pyrrolo[2,3-b]pyridine-5-carboxamide]
≥ 70%: inhibition of growth at 300 ppm (Pyricularia oryzae) | pest or weed control at 500 ppm (Phakopsora pachyrhizi) | pest or weed control at 500 ppm (Alternaria solani [1])

Cn1cc(C2CC2)c2cc(C(=O)NC(C)(C)Cc3ccccc3Cl)cnc21 [Compound 85, N-(1-(2-chlorophenyl)-2-methylpropan-2-yl)-3-cyclopropyl-1-methyl-1H-pyrrolo[2,3-b]pyridine-5-carboxamide]
≥ 70%: inhibition of growth at 300 ppm (Pyricularia oryzae) | inhibition of growth at 300 ppm (Alternaria solani [3]) | pest or weed control at 500 ppm (Phakopsora pachyrhizi) | pest or weed control at 500 ppm (Phytophthora infestans [4]) | inhibition of growth at 300 ppm (Parastagonospora nodorum)

Cn1ccc2cc(C(=O)NC(C)(C)Cc3ccc(OC(F)(F)F)cc3)cnc21 [Compound 19, 1-methyl-N-(2-methyl-1-(4-(trifluoromethoxy)phenyl)propan-2-yl)-1H-pyrrolo[2,3-b]pyridine-5-carboxamide]
≥ 70%: pest or weed control at 500 ppm (Phakopsora pachyrhizi) | pest or weed control at 500 ppm (Alternaria solani [1]) | pest or weed control at 500 ppm (Botrytis cinerea [5])

Cn1ccc2cc(C(=O)NC3(Cc4ccccc4)CCCC3)cnc21 [Compound 10, N-(1-benzylcyclopentyl)-1-methyl-1H-pyrrolo[2,3-b]pyridine-5-carboxamide]
≥ 70%: inhibition of growth at 300 ppm (Alternaria solani [3]) | pest or weed control at 500 ppm (Phakopsora pachyrhizi) | pest or weed control at 500 ppm (Phytophthora infestans [4]) | inhibition of growth at 300 ppm (Phytophthora infestans [6]) | inhibition of growth at 300 ppm (Parastagonospora nodorum) | inhibition of growth at 300 ppm (Colletotrichum capsici)

Cn1ccc2cc(C(=O)NC(C)(C)Cc3ccccc3F)cnc21 [Compound 13, N-(1-(2-fluorophenyl)-2-methylpropan-2-yl)-1-methyl-1H-pyrrolo[2,3-b]pyridine-5-carboxamide]
≥ 70%: inhibition of growth at 300 ppm (Pyricularia oryzae) | inhibition of growth at 300 ppm (Alternaria solani [3]) | inhibition of growth at 300 ppm (Phytophthora infestans [6]) | inhibition of growth at 300 ppm (Parastagonospora nodorum) | inhibition of growth at 300 ppm (Botrytis cinerea [7]) | inhibition of growth at 300 ppm (Colletotrichum capsici)
